Results as given in US20220288037A1, “PRODRUGS AND FORMULATIONS THEREOF” (BOARD OF REGENTS OF THE UNIVERSITY OF NEBRASKA, priority 2019, published 2022).

Test: aqueous solubility of prodrug
Type: physicochemical
Settings: prodrug compared with parent drug, FIG. 1B
Text: FIGS. 1A-1D provide characterization of a prodrug of nitazoxanide ([…]) and a nanoformulation thereof (NM1NTZ). FIG. 1A provides a Fourier transform infrared (FT-IR) spectrum of […] showing absorption bands at 2915 cm^-1 and 2850 cm^-1, thereby confirming formation of the prodrug as well as the nuclear magnetic resonance spectroscopy of the compound. FIG. 1B provides a graph of the aqueous solubility of […]. […] FIG. 1C provides a graph of cell viability as evaluated by mitochondrial function in monocyte-derived macrophage (MDM) by a 3-(4,5-dimethylthiazol-2-yl)-2,5-diphenyltetrazolium bromide (MTT) assay. NM1NTZ exerted no adverse effects to cell viability at 400 μM of drug or less. FIG. 1D provides graphs showing the particle size, polydispersity index (PDI) and charge of the nanoformulations over time, thereby showing the stability of the nanoparticles.

aqueous solubility: decreased water solubility
SMILES: CCCCCCCCCCCCCCCCCC(=O)Oc1ccccc1C(=O)Nc1ncc([N+](=O)[O-])s1 [M1NTZ]
